Data on two compounds can be found in patent US20250345426A1, “METHODS FOR MAKING AND USING THERAPEUTIC CELLS” (THE REGENTS OF THE UNIVERSITY OF CALIFORNIA, priority 2022, published 2025).

One test deals with rituximab CAR-T cells. Description: T-cell subtype distribution (CD45RO/CD62L staining), rituximab CAR-T cells. Particulars: 5 days of pharmacological modulation, vs vehicle. In kind it is cell-based, human. The text has this: FIG. 1A-G. Pharmacological inhibition of PI3K/AKT pathway modulates antigen-independent CAR-T cell activation. (A) Table of pharmacological inhibitors used during ex vivo expansion of rituximab CAR-T cells (left). Simplified schematic of the PI3K/AKT signaling axis where black arrows represent activation (right). (B) Activation marker expression by CAR^+ T cells in the absence of antigen stimulation after 5 days of pharmacological modulation. Data bars indicate the means of technical triplicates±1 S.D. The bars in FIG. 1B represent data from, untreated, vehicle, CAL-101, AZD5363, Rapamycin, MYCi975, and Betulin, respectively, from left to right. (C) TNF-α production CAR^+ T cells in the absence of antigen stimulation as quantified by intracellular flow cytometry. Data bars indicate the means of technical triplicates±1 S.D. The bars in FIG. 1B and FIG. 1C represent data from, untreated, vehicle, CAL-101, AZD5363, Rapamycin, MYCi975, and Betulin, respectively, from left to right. (D) Proliferation of CAR^+ T cells stained with CellTrace Violet (CTV) dye was assayed after a 4-day culture in the absence of target cells or exogenous cytokines. […] Statistical significance in panels B, C, and D was determined by two-tailed Student's t test with Sidak correction for multiple comparisons. * p<0.05, ** p<0.01, *** p<0.001, n.s. not statistically significant. […]
Antibody staining for flow-cytometry analysis. EGFRt expression was measured with biotinylated cetuximab (Eli Lilly; biotinylated in-house), followed by PE-conjugated streptavidin (Jackson ImmunoResearch #016-110-084). CAR expression was quantified by surface epitope staining using anti-Fc (Alexa Fluor 488, Jackson ImmunoResearch #709-546-098). Antigen-independent activation-marker expression of CAR-T cells was evaluated by antibody staining for CD137 (PE/Cy7, clone 4B4-1, BioLegend #309818), and PD-1 (FITC, clone EH12.2H7, BioLegend #329904) on Days 18 (i.e., 18 days after Dynabead addition and 11 days after Dynabead removal) and after 5-6 days of inhibitor culture (FIG. 1, FIG. 3). […]

In another test the test system is Raji tumor xenografts. Description: Raji xenograft in NSG mice treated with inhibitor-preconditioned rituximab CAR-T cells. The class given is in vivo. As to conditions: NSG mice, Raji i.v., preconditioned rituximab CAR-T cells, bioluminescence, vs vehicle control. As to the method: FIG. 2A-C. […] (A) Tumor signal (in photons/sec/cm^2/sr) in individual animals as quantified by bioluminescence imaging. […] Statistical significance was determined by Mann-Whitney U test with Holm-Sidak correction for multiple comparisons. * p<0.05, n.s. not statistically significant. (B) Kaplan-Meier survival curve (top) and table of median survival period in days (bottom). (C) Frequency of human CD45+EGFRt+ cell in peripheral blood collected from mice on day 8 after first dose of T-cell infusion. Statistical significance was determined by two-tailed Student's t test with Sidak correction for multiple comparisons. * p<0.05, ** p<0.01.
In vivo studies. Six- to eight-week-old NOD/SCID/IL-2Rγ^null (NSG) mice were obtained from UCLA Department of Radiation and Oncology. The protocol was approved by UCLA Institutional Animal Care and Used Committee. […] Details of the dose and timing of tumor injection, T-cell injection, and tumor re-challenge are indicated in the text and figures. Tumor progression/regression was monitored with an IVIS Illumina III LT Imaging System (PerkinElmer). Blood samples were harvested via retro-orbital bleeding 3 days post T-cell injection and every 10-13 days thereafter. Mice were euthanized at the humane endpoint. Bone marrow, spleen and liver were collected after euthanasia. Tissues were ground and passed through a 100-μm filter followed by red-blood-cell lysis prior to flow-cytometry analysis.

For `C=C(C)[C@@H]1CC[C@]2(CO)CC[C@]3(C)[C@H](CC[C@@H]4[C@@]5(C)CC[C@H](O)C(C)(C)[C@@H]5CC[C@]43C)[C@@H]12` [betulin, Betulin], in the test with rituximab CAR-T cells, the “fraction of naïve and stem-cell memory T (Tn/scm) cells / T-cell differentiation” value is reported as “accelerated T-cell differentiation”. For the same compound, the “tumor outgrowth / tumor progression” value with Raji tumor xenografts is “accelerated tumor progression”.
For MYCi975 the same measures were “accelerated T-cell differentiation” and “accelerated tumor progression”.
